{
  "source": "patent USRE38623E1",
  "about": "“Stabilization of ascorbic acid, ascorbic acid derivatives and/or extracts containing ascorbic acid for topical use” (Topix Pharmaceuticals, Inc., priority 1996, dated 2004)",
  "origin": "cited, not measured here",
  "note": "Like-named read-outs stand apart in the source and are kept apart here.",
  "data": [
    {"compound": "O=C1O[C@H]([C@@H](O)CO)C(O)=C1O", "note": "[L-ascorbic acid]", "values": [
      {"measurement": "potency after storage", "setting": "Darr '043 FIG. 1, after seven weeks, starting from 100 percent, L-ascorbic acid concentration of 1 percent", "result": 70, "unit": "%"},
      {"measurement": "drop in potency", "setting": "Darr '043 FIG. 1, seven weeks at room temperature, L-ascorbic concentrations of 3, 5 and 10 percent", "result": "less than 10%"},
      {"measurement": "drop in potency", "setting": "Darr '043 FIG. 1, seven weeks, L-ascorbic acid concentration of 1 percent", "result": "approximately 30%"},
      {"measurement": "lost potency", "setting": "Darr '043 FIG. 2, all four samples, eight weeks at room temperature, stored in the dark", "result": "≥ 10", "unit": "%"}
    ]}
  ]
}
